From article PMC11578313, “Miniaturized Modular Click Chemistry‐enabled Rapid Discovery of Unique SARS‐CoV‐2 M^pro Inhibitors With Robust Potency and Drug‐like Profile” (Advanced Science, 2024)
Like-named read-outs stand apart in the source and are kept apart here.

What was measured:
[1] = system: SARS‐CoV‐2 (hCoV‐19/Korea/KCDC06/2020, wild type); assay: microbe, parasite or virus in culture; assay type: cell-based
[2] = system: SARS‐CoV‐2 Delta (hCoV‐19/Korea/KDCA119861/2021); assay: microbe, parasite or virus in culture; assay type: cell-based; settings: Severe acute respiratory syndrome coronavirus 2; Calu‐3; read-out: EC50 ± SD, SARS‐CoV‐2 Delta
[3] = system: Kunming mice; assay: Subacute toxicity experiment; assay type: in vivo
Protocol: The acute and subacute toxicity of C5N17B were assessed in Kunming mice. In the acute toxicity study, one group received an oral dose of 500 mg kg^−1 of C5N17B. In the subacute toxicity study, a different group was administered a lower dose of 50 mg kg^−1 of C5N17B. Each experimental set included a control group that received only the vehicle treatment.
Kunming mice were group housed both during acclimation and the study period. The animal room environment was controlled to maintain specific target conditions, including a temperature range of 20 °C to 25 °C, relative humidity levels between 40% and 70%, and an alternating schedule of artificial light for 12 h followed by 12 h of darkness. The age of Kunming mice in the acute/subacute toxicity study was 3–4 weeks, and the body weights were ≈20 g. All animal experiments related to this study were approved by the ethics committee of Cheeloo College of Medicine (approval No. 230014), Shandong University (Jinan, China) Procedures performed in the studies were guided by the ethical standards of the institution.
A group of Kunming mice (comprising three males and three females) was supplied by the Animal Experimental Center of Shandong University. The mice underwent a 12 h fasting period, followed by oral administration of a suspension containing C5N17B in 0.5% CMC‐Na and 3% DMSO at the concentration of 100 mg mL^−1 to achieve an acute toxicity dose of 500 mg kg^−1. In the subacute toxicity experiment, the test group received 50 mg kg^−1 of C5N17B orally, with another group serving as a control. The experimental group and control group each consist of six mice, with an equal distribution of three males and three females.

[4] = system: MERS‐CoV; assay: microbe, parasite or virus in culture; assay type: cell-based
[5] = Cytotoxicity assay (MTT) in MRC‐5 cells; settings: human
[6] = in vitro; settings: rhesus monkey
[7] = target: T1, SARS‐CoV‐2 M^pro (Severe acute respiratory syndrome coronavirus 2, UniProt P0DTD1); assay: SARS‐CoV‐2 main protease enzymatic assay (FRET inhibitor screening kit); assay type: biochemical
[8] = system: SARS‐CoV‐2 viral RNA; assay type: cell-based
[9] = target: T1, SARS‐CoV‐2 M^pro; assay: biochemical; settings: reported K M value and Cheng‐Prusoff equation
[10] = in vivo; settings: ICR, mouse, po
[11] = system: HCoV‐OC43; assay: microbe, parasite or virus in culture; assay type: cell-based; settings: Betacoronavirus 1, MRC5, read-out: EC50 ± SD, HCoV‐OC43
[12] = system: SARS‐CoV‐2 Gamma (hCoV‐19/Korea/KDCA95637/2021); assay: microbe, parasite or virus in culture; assay type: cell-based; settings: Severe acute respiratory syndrome coronavirus 2; Calu‐3; read-out: EC50 ± SD, SARS‐CoV‐2 Gamma
[13] = system: SARS‐CoV‐2 Omicron (hCoV‐19/Korea/KDCA447321/2021); assay: microbe, parasite or virus in culture; assay type: cell-based; settings: Severe acute respiratory syndrome coronavirus 2, Calu-3, read-out: EC50 ± SD, SARS‐CoV‐2 Omicron
[14] = system: HCoV‐NL63; assay: microbe, parasite or virus in culture; assay type: cell-based; settings: Human coronavirus NL63, LLC-MK2, read-out: EC50 ± SD, HCoV‐NL63
[15] = 10 mg/kg, p.o. in combination with ritonavir, p.o. 10 mg kg^−1 with 20 mg kg^−1 ritonavir, ICR mice, n = 3
[16] = male, 10 mg/kg, Mean, C5N17B+Ritonavir, PO 10 mg/kg, mean of 3 mice
[17] = male, 10 mg/kg, Plasma concentration (Calculated Concentration), C5N17B+Ritonavir, PO 10 mg/kg, mouse plasma, individual mice
[18] = male, 10 mg/kg, Plasma concentration, Mean, C5N17B+Ritonavir, PO 10 mg/kg, mean of mice 1#-3#

SMILES: Cc1cncc(C(=O)N2C[C@H]3CC[C@@H](C2)N3[C@H](c2cccc(F)c2)c2cn(CCc3ccsc3)nn2)c1 [Compound C5N17B]
- EC50 ([1]; Severe acute respiratory syndrome coronavirus 2, Calu-3, Calu‐3, read-out: EC50 ± SD, SARS‐CoV‐2 Wild‐type): 0.119 ± 0.011 µM
- EC50 ([1]; Severe acute respiratory syndrome coronavirus 2, Calu-3, Calu‐3 cells, racemate, enantiomers and […] measured in the same system, read-out: EC50, anti‐SARS‐CoV‐2 activity in Calu‐3 cells (Figure 3B)): 0.078 µM
- EC50 [2]: 0.154 ± 0.019 µM
- body weight compared to the control group, subacute toxicity ([3]; 50 mg kg^−1, 15 days): no significant changes in body weight
- examination of vital organs, hematoxylin and eosin‐stained slices ([3]; heart, liver, spleen, lung, kidney, subacute toxicity study): no significant pathological abnormalities
- fatalities or abnormal behavior, subacute toxicity ([3]; oral 50 mg kg^−1, Kunming mice): No fatalities or abnormal behavior
- EC50 ± SD, MERS‐CoV [4]: failed to inhibit
- EC50 ([4]; Middle East respiratory syndrome-related coronavirus, Huh-7, read-out: EC50 ± SD, MERS‐CoV): > 100 µM
- CC50 at 5 day [5]: > 100 µM
- CC50 at 6 day [5]: > 100 µM
- CC50 [6]: > 100 µM
- IC50 [7]: 0.12 µM
- inhibition at 5 µM ([7]; 5 μM, read-out: Inhibitionrate at @5μM): 99.6%
- fold stronger enzyme inhibitory activity than C5N17A ([7]; IC50 ratio): 27 fold
- reduction in viral RNA [8]: exceeded 3 log orders
- decrease in viral RNA copy number compared to 10.0 µM nirmatrelvir ([8]; 0.041 µM): 20 fold
- Ki [9]: 0.0266 µM
- Cmax [10, 15]: 2300 ± 162 ng/mL
- MRT ([10]; 10 mg/kg, MRT0‐t, p.o. in combination with ritonavir, p.o. 10 mg kg^−1 with 20 mg kg^−1 ritonavir, ICR mice, n = 3): 3.15 ± 0.456 h
- MRT ([10]; 10 mg/kg, MRT0‐∞, p.o. in combination with ritonavir, p.o. 10 mg kg^−1 with 20 mg kg^−1 ritonavir, ICR mice, n = 3): 4.88 ± 2.7 h
- Tmax [10, 15]: 2.08 ± 1.88 h
- half-life ([10]; 10 mg/kg, t1/2, p.o. in combination with ritonavir, p.o. 10 mg kg^−1 with 20 mg kg^−1 ritonavir, ICR mice, n = 3): 3.14 ± 2.06 h
- AUC ([10]; AUC0‐t, p.o. in combination with ritonavir, p.o. 10 mg kg^−1 with 20 mg kg^−1 ritonavir, ICR mice, n = 3): 11500 ng·h/mL
- AUC(0-t) ([10]; male, 10 mg/kg, AUC0-t, C5N17B+Ritonavir, PO 10 mg/kg, individual mice 1#-3#): 9690 ng·h/mL
- AUC(0-t) ([10]; male, 10 mg/kg, AUC0-t, Mean, C5N17B+Ritonavir, PO 10 mg/kg, mean of 3 mice): 11500 ng·h/mL
- AUC(0-inf) ([10]; male, 10 mg/kg, AUC0-∞, C5N17B+Ritonavir, PO 10 mg/kg, individual mice 1#-3#): 10400 ng·h/mL
- AUC(0-inf) ([10]; male, 10 mg/kg, AUC0-∞, Mean, C5N17B+Ritonavir, PO 10 mg/kg, mean of 3 mice): 14200 ng·h/mL
- AUC(0-inf) ([10]; male, 10 mg/kg, AUCINF_obs, C5N17B+Ritonavir, po 10 mg/kg, non-compartmental output, individual mice): 10400 ng·h/mL
- AUC(0-inf) ([10]; male, 10 mg/kg, AUCINF_pred, C5N17B+Ritonavir, po 10 mg/kg, based on predicted Clast, individual mice): 10800 ng·h/mL
- AUC ([10]; male, 10 mg/kg, AUCall, C5N17B+Ritonavir, po 10 mg/kg, non-compartmental output, individual mice): 9690 ng·h/mL
- AUC(0-t) ([10]; male, 10 mg/kg, AUClast, C5N17B+Ritonavir, po 10 mg/kg, non-compartmental output, individual mice): 9690 ng·h/mL
- CL/F ([10]; male, 10 mg/kg, Cl_F_obs, C5N17B+Ritonavir, po 10 mg/kg, non-compartmental output, individual mice): 16 mL/min/kg
- Cmax ([10]; male, 10 mg/kg, C5N17B+Ritonavir, PO 10 mg/kg, individual mice 1#-3#): 2270 ng/mL
- Cmax ([10]; male, 10 mg/kg, C5N17B+Ritonavir, po 10 mg/kg, non-compartmental output, individual mice): 2270 ng/mL
- Cmax [10, 16]: 2300 ng/mL
- MRT last ([10]; male, 10 mg/kg, MRT0-t, C5N17B+Ritonavir, PO 10 mg/kg, individual mice 1#-3#): 2.62 h
- MRT last ([10]; male, 10 mg/kg, MRT0-t, Mean, C5N17B+Ritonavir, PO 10 mg/kg, mean of 3 mice): 3.15 h
- MRT inf ([10]; male, 10 mg/kg, MRT0-∞, Mean, C5N17B+Ritonavir, PO 10 mg/kg, mean of 3 mice): 4.88 h
- MRT last ([10]; male, 10 mg/kg, MRTlast, C5N17B+Ritonavir, po 10 mg/kg, non-compartmental output, individual mice): 2.62 h
- concentration at 5 min ([10]; male, 10 mg/kg, Plasma concentration (Calculated Concentration), C5N17B+Ritonavir, PO 10 mg/kg, mouse plasma, 5 min (5min), individual mice): 680 ng/mL
- concentration at 0.5 h ([10]; male, 10 mg/kg, Plasma concentration (Calculated Concentration), C5N17B+Ritonavir, PO 10 mg/kg, mouse plasma, 0.5 h (30min), individual mice): 2280 ng/mL
- concentration at 1 h [10, 17]: 2210 ng/mL
- concentration at 2 h [10, 17]: 1910 ng/mL
- concentration at 4 h [10, 17]: 1180 ng/mL
- concentration at 5 min ([10]; male, 10 mg/kg, Plasma concentration, Mean, C5N17B+Ritonavir, PO 10 mg/kg, 5 min, mean of mice 1#-3#): 660 ng/mL
- concentration at 0.5 h ([10]; male, 10 mg/kg, Plasma concentration, Mean, C5N17B+Ritonavir, PO 10 mg/kg, 0.50 h, mean of mice 1#-3#): 1740 ng/mL
- concentration at 1 h [10, 18]: 1970 ng/mL
- concentration at 2 h [10, 18]: 2110 ng/mL
- concentration at 4 h [10, 18]: 1750 ng/mL
- concentration at 6 h ([10]; male, 10 mg/kg, Plasma concentration, Mean, C5N17B+Ritonavir, PO 10 mg/kg, 6 h, mean of mice 1#-3#): 1040 ng/mL
- concentration at 8 h ([10]; male, 10 mg/kg, Plasma concentration, Mean, C5N17B+Ritonavir, PO 10 mg/kg, 8 h, mean (1# BQL)): 490 ng/mL
- half-life ([10]; male, 10 mg/kg, T1/2, Mean, C5N17B+Ritonavir, PO 10 mg/kg, mean of 3 mice): 3.14 h
- Tmax [10, 16]: 2.08 h
- EC50 [11]: 2.71 ± 0.51 µM
- EC50 [12]: 0.26 ± 0.013 µM
- EC50 [13]: 0.135 ± 0.003 µM
- EC50 [14]: > 100 µM
